These compounds were tested against LSD-1 enzyme (Homo sapiens (Human), UniProt O60341) (assay: LANCE LSD1/KDM1A demethylase assay (LSD1 histone demethylase biochemical assay)). Conditions: 1 nM LSD-1 enzyme, 1 hour preincubation at 25° C., 0.4 μM biotin-labeled Histone H3 peptide substrate.
Method: LANCE LSD1/KDM1A demethylase assay—10 μL of 1 nM LSD-1 enzyme (ENZO BML-SE544-0050) in the assay buffer (50 mM Tris, pH 7.5, 0.01% Tween-20, 25 mM NaCl, 5 mM DTT) were preincubated for 1 hour at 25° C. with 0.8 μL compound/DMSO dotted in black 384 well polystyrene plates. […] After stopping the reactions plates were incubated for 30 minutes and read on a PHERAstar FS plate reader (BMG Labtech).

Question: Which IC50 does the source give for `CS(=O)(=O)N1CC(CC#N)(N2CCC(N[C@@H]3C[C@H]3c3ccc(F)cc3)CC2)C1` [Example 101, [3-(4-{[(1R,2S)-2-(4-fluorophenyl)cyclopropyl]amino}piperidin-1-yl)-1-(methylsulfonyl)azetidin-3-yl]acetonitrile] here?
Answer: ≤ 100 nM

Question: How did the IC50 turn out when `N#CCC1(N2CCC(N[C@@H]3C[C@H]3c3ccc(F)cc3)CC2)CN(S(N)(=O)=O)C1` [Example 102, 3-(cyanomethyl)-3-(4-{[(1R,2S)-2-(4-fluorophenyl)cyclopropyl]amino}piperidin-1-yl)azetidine-1-sulfonamide] was run?
Answer: ≤ 100 nM

Question: With `O=C(O)CC1(N2CCC(CN[C@@H]3C[C@H]3c3ccccc3)CC2)CCC1` [Example 105, {1-[4-({[(1R,2S)-2-phenylcyclopropyl]amino}methyl)piperidin-1-yl]cyclobutyl}acetic acid] as the compound, how does the IC50 read?
Answer: ≤ 100 nM

Question: `N#CCC1(N2CCC(N[C@@H]3C[C@H]3c3ccccc3)CC2)CN(C2CC(O)C2)C1` (stereo partly drawn) [Example 106, [1-(3-hydroxycyclobutyl)-3-(4-{[(1R,2S)-2-phenylcyclopropyl]amino}piperidin-1-yl)azetidin-3-yl]acetonitrile] was tested. Which IC50 did it give?
Answer: ≤ 100 nM

Question: `N#CCC1(N2CCC(N[C@@H]3C[C@H]3c3ccccc3)CC2)CN(C(=O)C2CCCO2)C1` (stereo partly drawn) [Example 107, 2-(3-(4-(((1R,2S)-2-phenylcyclopropyl)amino)piperidin-1-yl)-1-(tetrahydrofuran-2-carbonyl)azetidin-3-yl)acetonitrile] was tested. Which IC50 did it give?
Answer: ≤ 100 nM

Question: Which IC50 does the source give for `N#CCC1(N2CCC(N[C@@H]3C[C@H]3c3ccccc3)CC2)CN(C(=O)C2CCOC2)C1` (stereo partly drawn) [Example 108, [3-(4-{[(1R,2S)-2-phenylcyclopropyl]amino}piperidin-1-yl)-1-(tetrahydrofuran-3-ylcarbonyl)azetidin-3-yl]acetonitrile] here?
Answer: ≤ 100 nM

Question: How did the IC50 turn out when `N#CCC1(N2CCC(N[C@@H]3C[C@H]3c3ccccc3)CC2)CN(C(=O)c2cncs2)C1` [Example 109, [3-(4-{[(1R,2S)-2-phenylcyclopropyl]amino}piperidin-1-yl)-1-(1,3-thiazol-5-ylcarbonyl)azetidin-3-yl]acetonitrile] was run?
Answer: ≤ 100 nM

Question: `N#CCC1(N2CCC(N[C@@H]3C[C@H]3c3ccccc3)CC2)CN(C(=O)c2ccns2)C1` [Example 110, [1-(isothiazol-5-ylcarbonyl)-3-(4-{[(1R,2S)-2-phenylcyclopropyl]amino}piperidin-1-yl)azetidin-3-yl]acetonitrile] was tested. Which IC50 did it give?
Answer: ≤ 100 nM

Question: How did the IC50 turn out when `N#CCC1(N2CCC(N[C@@H]3C[C@H]3c3ccccc3)CC2)CN(C(=O)c2cnccn2)C1` [Example 111, [3-(4-{[(1R,2S)-2-phenylcyclopropyl]amino}piperidin-1-yl)-1-(pyrazin-2-ylcarbonyl)azetidin-3-yl]acetonitrile] was run?
Answer: ≤ 100 nM

Question: How did the IC50 turn out when `N#CCC1(N2CCC(N[C@@H]3C[C@H]3c3ccccc3)CC2)CN(C(=O)c2cn[nH]c2)C1` [Example 112, [3-(4-{[(1R,2S)-2-phenylcyclopropyl]amino}piperidin-1-yl)-1-(1H-pyrazol-4-ylcarbonyl)azetidin-3-yl]acetonitrile] was run?
Answer: ≤ 100 nM

Question: `N#CCC1(N2CCC(N[C@@H]3C[C@H]3c3ccccc3)CC2)CN(C(=O)c2ccn[nH]2)C1` [Example 113, [3-(4-{[(1R,2S)-2-phenylcyclopropyl]amino}piperidin-1-yl)-1-(1H-pyrazol-5-ylcarbonyl)azetidin-3-yl]acetonitrile] was tested. Which IC50 did it give?
Answer: ≤ 100 nM

Question: With `N#CCC1(N2CCC(N[C@@H]3C[C@H]3c3ccccc3)CC2)CN(C(=O)[C@@H]2CCOC2)C1` [Example 114, {3-(4-{[(1R,2S)-2-phenylcyclopropyl]amino}piperidin-1-yl)-1-[(3R)-tetrahydrofuran-3-ylcarbonyl]azetidin-3-yl}acetonitrile] as the compound, how does the IC50 read?
Answer: ≤ 100 nM

Question: `N#CCC1(N2CCC(N[C@@H]3C[C@H]3c3ccccc3)CC2)CN(C(=O)[C@H]2CCOC2)C1` [Example 115, {3-(4-{[(1R,2S)-2-phenylcyclopropyl]amino}piperidin-1-yl)-1-[(3S)-tetrahydrofuran-3-ylcarbonyl]azetidin-3-yl}acetonitrile] was tested. Which IC50 did it give?
Answer: ≤ 100 nM

Question: `N#CCC1(N2CCC(N[C@@H]3C[C@H]3c3ccccc3)CC2)CN(C(=O)[C@@H]2CCCO2)C1` [Example 116, {3-(4-{[(1R,2S)-2-phenylcyclopropyl]amino}piperidin-1-yl)-1-[(2S)-tetrahydrofuran-2-ylcarbonyl]azetidin-3-yl}acetonitrile] was tested. Which IC50 did it give?
Answer: ≤ 100 nM

Question: `N#CCC1(N2CCC(N[C@@H]3C[C@H]3c3ccccc3)CC2)CN(C(=O)[C@H]2CCCO2)C1` [Example 117, {3-(4-{[(1R,2S)-2-phenylcyclopropyl]amino}piperidin-1-yl)-1-[(2R)-tetrahydrofuran-2-ylcarbonyl]azetidin-3-yl}acetonitrile] was tested. Which IC50 did it give?
Answer: ≤ 100 nM

Question: For `N#CCC1(N2CCC(N[C@@H]3C[C@H]3c3ccccc3)CC2)CN(C(=O)Cc2ccccn2)C1` [Example 118, [3-(4-{[(1R,2S)-2-phenylcyclopropyl]amino}piperidin-1-yl)-1-(pyridin-2-ylacetyl)azetidin-3-yl]acetonitrile], which IC50 is on record?
Answer: ≤ 100 nM

Question: `N#CCC1(N2CCC(N[C@@H]3C[C@H]3c3ccccc3)CC2)CN(C(=O)c2cscn2)C1` [Example 119, [3-(4-{[(1R,2S)-2-phenylcyclopropyl]amino}piperidin-1-yl)-1-(1,3-thiazol-4-ylcarbonyl)azetidin-3-yl]acetonitrile] was tested. Which IC50 did it give?
Answer: ≤ 100 nM

Question: With `N#CCC1(N2CCC(N[C@@H]3C[C@H]3c3ccccc3)CC2)CN(C(=O)c2nccs2)C1` [Example 120, [3-(4-{[(1R,2S)-2-phenylcyclopropyl]amino}piperidin-1-yl)-1-(1,3-thiazol-2-ylcarbonyl)azetidin-3-yl]acetonitrile] as the compound, how does the IC50 read?
Answer: ≤ 100 nM

Question: How did the IC50 turn out when `CN(C)C(=O)CC1(N2CCC(N[C@@H]3C[C@H]3c3ccccc3)CC2)CN(C2CCOCC2)C1` [Example 121, N,N-dimethyl-2-[3-(4-{[(1R,2S)-2-phenylcyclopropyl]amino}piperidin-1-yl)-1-(tetrahydro-2H-pyran-4-yl)azetidin-3-yl]acetamide] was run?
Answer: ≤ 100 nM

Question: With `CNC(=O)CC1(N2CCC(N[C@@H]3C[C@H]3c3ccccc3)CC2)CN(C2CCOCC2)C1` [Example 122, N-methyl-2-[3-(4-{[(1R,2S)-2-phenylcyclopropyl]amino}piperidin-1-yl)-1-(tetrahydro-2H-pyran-4-yl)azetidin-3-yl]acetamide] as the compound, how does the IC50 read?
Answer: ≤ 100 nM

Question: How did the IC50 turn out when `CN(C)C(=O)CC1(N2CCC(N[C@@H]3C[C@H]3c3ccccc3)CC2)CN(CC2CC2)C1` [Example 123, 2-[1-(cyclopropylmethyl)-3-(4-{[(1R,2S)-2-phenylcyclopropyl]amino}piperidin-1-yl)azetidin-3-yl]-N,N-dimethylacetamide] was run?
Answer: ≤ 100 nM

Question: Which IC50 does the source give for `CNC(=O)CC1(N2CCC(N[C@@H]3C[C@H]3c3ccccc3)CC2)CN(CC2CC2)C1` [Example 124, 2-[1-(cyclopropylmethyl)-3-(4-{[(1R,2S)-2-phenylcyclopropyl]amino}piperidin-1-yl)azetidin-3-yl]-N-methylacetamide] here?
Answer: ≤ 100 nM

Question: With `O=C(O)CC1(N2CCC(N[C@@H]3C[C@H]3c3ccccc3)CC2)CN(Cc2ncccn2)C1` [Example 125, [3-(4-{[(1R,2S)-2-phenylcyclopropyl]amino}piperidin-1-yl)-1-(pyrimidin-2-ylmethyl)azetidin-3-yl]acetic acid] as the compound, how does the IC50 read?
Answer: ≤ 100 nM

Question: With `O=C(O)CC1(N2CCC(N[C@@H]3C[C@H]3c3ccccc3)CC2)CN(Cc2cncnc2)C1` [Example 126, [3-(4-{[(1R,2S)-2-phenylcyclopropyl]amino}piperidin-1-yl)-1-(pyrimidin-5-ylmethyl)azetidin-3-yl]acetic acid] as the compound, how does the IC50 read?
Answer: ≤ 100 nM

Question: For `O=C(O)CC1(N2CCC(N[C@@H]3C[C@H]3c3ccccc3)CC2)CN(Cc2cscn2)C1` [Example 127, [3-(4-{[(1R,2S)-2-phenylcyclopropyl]amino}piperidin-1-yl)-1-(1,3-thiazol-4-ylmethyl)azetidin-3-yl]acetic acid], which IC50 is on record?
Answer: ≤ 100 nM

Question: How did the IC50 turn out when `O=C(O)CC1(N2CCC(N[C@@H]3C[C@H]3c3ccccc3)CC2)CN(Cc2cncs2)C1` [Example 128, [3-(4-{[(1R,2S)-2-phenylcyclopropyl]amino}piperidin-1-yl)-1-(1,3-thiazol-5-ylmethyl)azetidin-3-yl]acetic acid] was run?
Answer: ≤ 100 nM

Question: With `O=C(O)CC1(N2CCC(N[C@@H]3C[C@H]3c3ccccc3)CC2)CN(Cc2nccs2)C1` [Example 129, [3-(4-{[(1R,2S)-2-phenylcyclopropyl]amino}piperidin-1-yl)-1-(1,3-thiazol-2-ylmethyl)azetidin-3-yl]acetic acid] as the compound, how does the IC50 read?
Answer: ≤ 100 nM

Question: With `O=C(O)CC1(N2CCC(N[C@@H]3C[C@H]3c3ccccc3)CC2)CN(CCC(F)(F)F)C1` [Example 130, [3-(4-{[(1R,2S)-2-phenylcyclopropyl]amino}piperidin-1-yl)-1-(3,3,3-trifluoropropyl)azetidin-3-yl]acetic acid] as the compound, how does the IC50 read?
Answer: ≤ 100 nM

Reference: US9994546B2, “Cyclopropylamines as LSD1 inhibitors” (Incyte Corporation, priority 2014, dated 2018)
